Earlier results, collected in US20090041869A1, “METHOD OF REDUCING INSECT RESISTANT PESTS IN […]” (PIONEER HI-BRED INTERNATIONAL, INC., priority 2004, published 2009).
Entries after “also recorded” stand apart in the source; their conditions may differ. Where two headings read alike, the source gives them in different places.

System: European corn borer, Ostrinia nubilalis
Conditions: Cry 1F selected colony vs unselected colony, likelihood ratio test at α=0.05

Cry 1Ab: Bt crystal protein toxin assessed for cross resistance
cross resistance of the Cry 1F selected strain to other Bt toxins: No cross resistance; also recorded: does not lead to loss of susceptibility
cross resistance of the Cry 1F selected strain to other Bt toxins (listed as Cry1 Ab): no cross resistance

Cry 1Ac: Bt crystal protein toxin assessed for cross resistance
cross resistance of the Cry 1F selected strain to other Bt toxins: 6.89 fold
